Data on 34 molecules can be found in patent US12410160B2 (Gilead Sciences, Inc., priority 2021, dated 2025).

pIC50: −log10 of the molar value. Where two headings read alike, the source gives them in different places. A value given as a limit tells only on which side of the number the result lay.

The target in one assay is human KHK-C (Homo sapiens (Human), UniProt P50053). In words: KHK Biochemical Assay (IC50), ADP-Glo, KHK-C. On the procedure: (§1) The His-tagged fusion protein was expressed using BL21 (DE3) with IPTG induction and purified using Ni-NTA column followed by dialysis into final buffer containing 25 mM Tris-HCl pH 8.0, 250 mM NaCl.
Chain of human KHK-C (P50053 whole entry, the tested form may be a part): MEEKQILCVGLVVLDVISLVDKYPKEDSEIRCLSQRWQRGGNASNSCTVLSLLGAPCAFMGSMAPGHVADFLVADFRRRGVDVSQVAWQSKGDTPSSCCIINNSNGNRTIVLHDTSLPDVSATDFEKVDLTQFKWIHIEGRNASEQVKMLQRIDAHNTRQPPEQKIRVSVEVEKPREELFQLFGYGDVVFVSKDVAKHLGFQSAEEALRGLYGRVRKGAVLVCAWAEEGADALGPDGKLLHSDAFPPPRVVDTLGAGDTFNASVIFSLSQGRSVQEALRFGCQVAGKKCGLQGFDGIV
(§2) KHK Biochemical Assay (IC50)
(§3) Compounds were tested for KHK enzyme inhibition in a high-throughput 384-well assay format using the ADP-Glo assay (Promega) in buffer consisting of 50 mM Hepes (pH 7.4), 140 mM KCl, 5 mM MgCl2 and 0.01% Triton-X. 0.2 nM. […] Compounds were serially diluted (1:3) in DMSO.
(§4) The compounds were pre-incubated with 5 μL of 2× final enzyme concentration for 30 minutes before adding 5 μL of 2× final concentration of ATP and fructose. The plates were incubated at room temperature for 4 hours before adding ADP-Glo reagent to quench the enzyme reaction, followed by incubation at room temperature for 1 hour. The ADP-Glo detection reagent was then added to the plates and luminescence was measured on the Envision plate reader after 1 hour.
(In ADP-Glo the light output rises with the ADP produced.)

The target of another assay is human KHK-A (Homo sapiens (Human), UniProt P50053). In words: KHK Biochemical Assay (IC50), ADP-Glo, KHK-A. As to conditions: average of at least two separate assays. Here is the method:
as §1, §2, §3, §4

Setting [1] is: average of at least two separate assays.
[2] abbreviates: ADP-Glo, average of at least two separate assays.

Chain of human KHK-A (P50053 other isoform, or with tags, fused parts or gaps): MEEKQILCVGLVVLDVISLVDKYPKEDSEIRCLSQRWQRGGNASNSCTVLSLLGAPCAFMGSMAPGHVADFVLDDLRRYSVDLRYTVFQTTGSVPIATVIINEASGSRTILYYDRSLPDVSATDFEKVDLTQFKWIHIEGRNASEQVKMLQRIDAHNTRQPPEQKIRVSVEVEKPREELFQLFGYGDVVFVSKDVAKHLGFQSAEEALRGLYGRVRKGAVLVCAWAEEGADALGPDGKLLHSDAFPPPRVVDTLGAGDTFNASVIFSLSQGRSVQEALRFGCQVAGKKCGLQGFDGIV

In the case of “2-(3-(7,7-difluoro-2-((2S,3R)-3-hydroxy-2-methylazetidin-1-yl)-6,7-dihydro-5H-cyclopenta[d]pyrimidin-4-yl)phenylsulfonimidoyl)acetonitrile [Example 628]”, the pIC50 was 8.06 on human KHK-C (setting [1]) and 7.99 against human KHK-A.

“2-[(2S)-2-methylazetidin-1-yl]-4-(3-methylimidazol-4-yl)-6,7-dihydro-5H-cyclopenta[d]pyrimidine [Example 341]”: the pIC50 is 6.96 against human KHK-C (setting [2]) and 6.88 against human KHK-A (ADP-Glo).

Consider “3-(24(2S,3R)-3-fluoro-2-methylazetidin-1-yl)-6,8-dihydro-5H-pyrano[3,4-d]pyrimidin-4-yl)benzenesulfonamide [Example 287]”, for which the pIC50 at human KHK-C (setting [2]) is 5.89; against human KHK-A (ADP-Glo) it was 6.16.

As for `C[C@H]1CCN1c1nc(-c2ccccc2)c2c(n1)C1CC1C2` (mixture of isomers) [Example 332, 9-[(2S)-2-methylazetidin-1-yl]-7-phenyl-8,10-diazatricyclo[4.4.0.02,4]deca-1(10),6,8-triene], the pIC50 against human KHK-C (setting [2]) was 5.66; against human KHK-A (ADP-Glo) it was 5.72.

As for `C[C@H]1CCN1c1nc2c(c(-c3cccc(C(=O)N[C@H]4CC[C@@H]4O)c3)n1)CCC2` (racemic) [Example 59, N-((18*,28*)-2-hydroxycyclobutyl)-3-(2-((8)-2-methylazetidin-1-yl)-6,7-dihydro-5H-cyclopenta[d]pyrimidin-4-yl)benzamide], the pIC50 on human KHK-C (setting [2]) was 6.77; against human KHK-A (ADP-Glo), 7.37.

As for `C[C@H]1CCN1c1nc2c(c(-c3cccc(C(=O)N[C@H]4CC[C@H]4O)c3)n1)CCC2` (racemic) [Example 60, N-((18*,2R*)-2-hydroxycyclobutyl)-3-(2-((8)-2-methylazetidin-1-yl)-6,7-dihydro-5H-cyclopenta[d]pyrimidin-4-yl)benzamide], the pIC50 on human KHK-C (setting [2]) is 6.92; on human KHK-A (ADP-Glo), 7.21. Take `NS(=O)(=O)c1cccc(-c2nc(N3CC4CCCC43)nc3c2CCC3)c1` (racemic) [Example 79, (rac)-3-(2-(6-azabicyclo[3.2.0]heptan-6-yl)-6,7-dihydro-5H-cyclopenta[d]pyrimidin-4-yl)benzenesulfonamide]: the pIC50 at human KHK-C (setting [2]) is 5.30; at human KHK-A (ADP-Glo) it was 5.16. `NS(=O)(=O)c1cccc(-c2nc(N3CC[C@@H]4[C@H](O)C[C@@H]43)nc3c2CCC3)c1` (racemic) [Example 80, (rac)-3-(2-((1S*,5S*,6R*)-6-hydroxy-2-azabicyclo[3.2.0]heptan-2-yl)-6,7-dihydro-5H-cyclopenta[d]pyrimidin-4-yl)benzenesulfonamide]: the pIC50 was 6.02 against human KHK-C (setting [2]) and 6.06 against human KHK-A (ADP-Glo). Regarding `C[C@H]1[C@H](O)CN1c1nc2c(c(-c3cccc([C@H]4C[C@@H]4C(=O)O)c3)n1)CCC2` (single isomer, unassigned) [Example 113], the pIC50 at human KHK-C (setting [2]) is 7.88; on human KHK-A (ADP-Glo), 7.74. The matching figures for `C[C@H]1[C@H](O)CN1c1nc2c(c(-c3cccc([C@@H]4C[C@H]4C(=O)O)c3)n1)CCC2` (single isomer, unassigned) [Example 114]: 7.34 and 7.29. Take `C[C@H]1CCN1c1nc(-c2ccccc2)c2c(n1)[C@H]1C[C@H]1C2` (single isomer, unassigned) [Example 334]: the pIC50 against human KHK-C (setting [2]) was 5.01; on human KHK-A (ADP-Glo), 5.03. As for `C[C@H]1[C@H](O)CN1c1nc(-c2ccc3c(c2)OC[C@]32COC(=O)N2)c2c(n1)C(F)(F)CC2` (single isomer, unassigned) [Example 482], the results for the negative-log IC50 (pIC50) at human KHK-C (setting [1]) and at human KHK-A were 7.92 and 7.58, respectively.

In the case of `C[C@H]1[C@H](O)CN1c1nc(-c2ccc3c(c2)OC[C@]32COCC(=O)N2)c2c(n1)C(F)(F)CC2` (single isomer, unassigned) [Example 498], the values for the pIC50 on human KHK-C (setting [1]) and against human KHK-A were 8.92 and 7.72, respectively. The like results for `C[C@H]1[C@H](O)CN1c1nc(-c2ccc(OC3CC3)c([S@](C)(=N)=O)c2)c2c(n1)C(F)(F)CC2` (single isomer, unassigned) [Example 543] were, in that order, 7.97 and 8.21.

In the case of `CC1OC[C@]2(COc3cc(-c4nc(N5C[C@@H](O)[C@@H]5C)nc5c4CCC5(F)F)ccc32)NC1=O` (single isomer, unassigned) [Example 560], the values for the pIC50 at human KHK-C (setting [1]) and at human KHK-A were 7.79 and 7.12, respectively.

Take `C[C@H]1[C@H](O)CN1c1nc(-c2ccc3c(c2)OC[C@@]32NC(=O)OC2(C)C)c2c(n1)C(F)(F)CC2` (single isomer, unassigned) [Example 567]: the pIC50 at human KHK-C (setting [1]) is 7.35; on human KHK-A, 7.19. With `C[C@H]1[C@H](O)CN1c1nc(-c2ccc3c(c2)C(F)(F)C[C@@H]3NS(C)(=O)=O)c2c(n1)C(F)(F)CC2` (single isomer, unassigned) [Example 634], the pIC50 against human KHK-C (setting [1]) is 9.05; at human KHK-A it was 7.97.

Take `C[C@H]1[C@H](F)CN1c1nc(-c2ccc3c(c2)S(=O)(=O)C[C@@H]3NS(C)(=O)=O)c2c(n1)C(F)(F)CC2` (single isomer, unassigned) [Example 679]: the pIC50 against human KHK-C (setting [1]) was 10.00; on human KHK-A it was 8.64. Turning to `NC1(c2ccc(-c3nc(N4CC[C@H]4C(F)F)nc4c3CCC4(F)F)cc2)COC1` (single isomer, unassigned) [Example 688], the pIC50 against human KHK-C (setting [1]) is 7.22; at human KHK-A it was 7.02.

As for `NC1(c2ccc(-c3nc(N4CC[C@@H]4C(F)F)nc4c3CCC4(F)F)cc2)CS(=O)(=O)C1` (single isomer, unassigned) [Example 800], the pIC50 was 8.89 at human KHK-C (setting [2]) and 8.11 on human KHK-A (ADP-Glo). Turning to `NC1(c2ccc(-c3nc(N4CC[C@H]4C(F)F)nc4c3CCC4(F)F)cc2)CS(=O)(=O)C1` (single isomer, unassigned) [Example 801], the pIC50 against human KHK-C (setting [2]) is 7.28; against human KHK-A (ADP-Glo) it was < 7.00. On to `C[C@H]1[C@H](O)CN1c1nc(-c2cnc3c(c2)OC[C@H]3NS(C)(=O)=O)c2c(n1)C(F)(F)CC2` (single isomer, unassigned) [Example 822], for which the pIC50 against human KHK-C (setting [2]) is 7.62; against human KHK-A (ADP-Glo), < 7.00. As to `C[C@H]1[C@H](O)CN1c1nc(-c2ccc3c(c2)OC[C@]32NC(=O)N(C)C2=O)c2c(n1)C(F)(F)CC2` (single isomer, unassigned) [Example 827], the values for the negative-log IC50 (pIC50) against human KHK-C (setting [2]) and at human KHK-A (ADP-Glo) were 7.93 and < 7.00, respectively. Regarding `COC(=O)N[C@@H]1COc2cc(-c3nc(N4C[C@@H](O)[C@@H]4C)nc4c3CCC4(F)F)cc(OC)c21` (single isomer, unassigned) [Example 833], the pIC50 was 8.40 against human KHK-C (setting [2]) and 7.00 against human KHK-A (ADP-Glo). The like results for `COC(=O)N[C@H]1COc2cc(-c3nc(N4C[C@@H](O)[C@@H]4C)nc4c3CCC4(F)F)cc(OC)c21` (single isomer, unassigned) [Example 834] were, in that order, 7.75 and 7.25. For `COC(=O)CCc1cccc(-c2nc(N3CC[C@@H]3C)nc3c2CCC3)c1` [Example 1, methyl (S)-3-(3-(2-(2-methylazetidin-1-yl)-6,7-dihydro-5H cyclopenta[d]pyrimidin-4-yl)phenyl)propanoate], the negative logarithm of the IC50 (pIC50) is 6.16 against human KHK-C (setting [2]) and 6.02 against human KHK-A (ADP-Glo).

With `COC(=O)CCc1ccccc1-c1nc(N2CC[C@@H]2C)nc2c1CCC2` [Example 2, methyl (S)-3-(2-(2-(2-methylazetidin-1-yl)-6,7-dihydro-5H-cyclopenta[d]pyrimidin-4-yl)phenyl)propanoate], the pIC50 on human KHK-C (setting [2]) and on human KHK-A (ADP-Glo) was 4.51 throughout. In the case of `COC(=O)Cc1cccc(-c2nc(N3CC[C@@H]3C)nc3c2CCC3)c1` [Example 3, methyl (S)-2-(3-(2-(2-methylazetidin-1-yl)-6,7-dihydro-5H-cyclopenta[d]pyrimidin-4-yl)phenyl)acetate], the negative-log IC50 (pIC50) against human KHK-C (setting [2]) and against human KHK-A (ADP-Glo) was 6.92 each time. Take `C[C@H]1CCN1c1nc2c(c(-c3ccccc3CCC(=O)O)n1)CCC2` [Example 5, (S)-3-(2-(2-(2-methylazetidin-1-yl)-6,7-dihydro-5H-cyclopenta[d]pyrimidin-4-yl)phenyl)propanoic acid]: the pIC50 was 5.10 at human KHK-C (setting [2]) and 5.23 at human KHK-A (ADP-Glo). Consider `C[C@H]1CCN1c1nc2c(c(-c3cccc(CC(=O)O)c3)n1)CCC2` [Example 6, (S)-2-(3-(2-(2-methylazetidin-1-yl)-6,7-dihydro-5H-cyclopenta[d]pyrimidin-4-yl)phenyl)acetic acid], for which the negative-log IC50 (pIC50) against human KHK-C (setting [2]) was 6.61; at human KHK-A (ADP-Glo) it was 6.55.

With `C[C@H]1CCN1c1nc2c(c(-c3cccc(C#N)c3)n1)CCC2` [Example 7, (S)-3-(2-(2-methylazetidin-1-yl)-6,7-dihydro-5H-cyclopenta[d]pyrimidin-4-yl)benzonitrile], the pIC50 is 6.43 on human KHK-C (setting [2]) and 6.36 on human KHK-A (ADP-Glo). Consider `C[C@H]1CCN1c1nc2c(c(-c3ccccc3)n1)CCOC2` [Example 10, (S)-2-(2-methylazetidin-1-yl)-4-phenyl-5,8-dihydro-6H-pyrano[3,4-d]pyrimidine], for which the pIC50 against human KHK-C (setting [2]) and on human KHK-A (ADP-Glo) was 5.94 throughout. As to `C[C@H]1CCN1c1nc(-c2ccccc2)c2c(cnn2C)n1` [Example 11, (S)-1-methyl-5-(2-methylazetidin-1-yl)-7-phenyl-1H-pyrazolo[4,3-d]pyrimidine], the pIC50 on human KHK-C (setting [2]) is 6.39; at human KHK-A (ADP-Glo), 6.34. With `C[C@H]1CCN1c1nc(N2CC3CC3C2)cc(C(F)(F)F)n1` (stereo partly drawn) [Reference Compound 1b, 3-(2-((S)-2-methylazetidin-1-yl)-6-(trifluoromethyl)pyrimidin-4-yl)-3-azabicyclo[3.1.0]hexane, reference compound], at human KHK-C, the pIC50 was 4.88.

One may read the pIC50 as the negative decadic logarithm of the IC50, by convention in mol/L. Read a low pIC50 as a high IC50.
